Experimental findings from patent US6455470B1, “Herbicidal compositions” (priority 1994, dated 2002) are described below.

Where “and” joins values, the source holds several entries; their conditions need not be identical. Equal values may be shown once.

Assay type in all cases: in vivo
Test [1] relates to Veronica persica (common field speedwell). The experiment in a line: Growth room pot test, post-emergence phytotoxicity on VERPE. Here is the method:
(§1) A simple mathematical method to test the additivity of a pesticide combination is based on the equation: [formula]
(§2) in which X and Y represent the percentage-of-inhibition of growth by toxicant A and B, respectively. E is the expected percentage-of-inhibition of growth by the mixture A and B. In order to show synergism, the actual efficacy should be higher than E.
(§3) are formulated as suspension concentrates (SC) containing about 42% by weight of active ingredient.
(§4) The compounds were tested alone and in admixture with a co-herbicide, which was also tested alone, against the following weeds:
(§5) In the test procedure three replicate pots per treatment were randomly arranged through a growth room. The plants were treated about three weeks after planting and then submitted to a photoperiod of 14 hours per day; the temperature was 15 degrees Centigrade during the day and 9 degrees at night. All applications of test formulations were performed using a MARDRIVE sprayer, simulating as far as possible field conditions. The pressure was controlled at 2 bar and the water volume was 300 l/ha. The weed plants were at a true leaf stage between 0 to 6 leaves.
(§6) Assessment of phytotoxicity was made by comparison with untreated control pots on an arbitrary scale from 0 to 100%, where 0 represents no visible effect and 100 represents a kill of all plants. The results in the tables and figures are presented as average values of three replicates.

Test [2] deals with Alopecurus myosuroides (black grass). The experiment in a line: Growth room pot test, post-emergence phytotoxicity on ALOMY. On the procedure: as §1, §2, §4, §5
(§7) The results in the tables and figures are presented as average values of three replicates.

The subject of test [3] is Matricaria chamomilla (mayweed). In words: Growth room pot test, post-emergence phytotoxicity on MATCH. Here is the method: as §1, §2, §4, §5, §7
Test [4] concerns Avena fatua (wild oats). The experiment in a line: Growth room pot test, post-emergence phytotoxicity on AVEFA. On the procedure:
as §1, §2, §4, §5, §7

Test [5] has as its system Lamium purpureum (red dead nettle). In words: Growth room pot test, post-emergence phytotoxicity on LAMPU. On the procedure:
as §1, §2, §3, §4, §5, §6

Test [6] relates to Stellaria media (common chickweed). The experiment in a line: Growth room pot test, post-emergence phytotoxicity on STEME. Here is the method:
as §1, §2, §4, §5, §7

Test [7] concerns Galium aparine (bedstraw cleavers). The experiment in a line: Growth room pot test, post-emergence phytotoxicity on GALAP. On the procedure: as §1, §2, §3, §4, §5, §6
The test system of test [8] is weeds. The experiment in a line: Growth room pot test, overall synergy on the weeds. To be noted: mixtures of sulfonylurea A or B with co-herbicide.
Excerpt: It is generally admitted that, in case of synergism, the effectiveness of the mixture cannot be computed from that of the individual ingredients. Synergism is generally defined as the simultaneous action of two or more compounds in which the total response of an organism to the pesticide combination is greater that the sum of the individual components.
as §1, §2, §4
In the test procedure three replicate pots per treatment were randomly arranged through a growth room. The plants were treated about three weeks after planting and then submitted to a photoperiod of 14 hours per day; the temperature was 15 degrees Centigrade during the day and 9 degrees at night. All applications of test formulations were performed using a MARDRIVE sprayer, simulating as far as possible field conditions. The pressure was controlled at 2 bar and the water volume was 300 l/ha. The weed plants were at a true leaf stage between 0 to 6 leaves. […]

On to `CC(C)N(C(=O)SCC(Cl)=C(Cl)Cl)C(C)C` [Triallate, triallate], for which the “Phytotoxicity of herbicide alone” value in test [1] (500 g/ha) is recorded as 40%; in test [2] (1500 g/ha), 50%; in test [3] (1500 g/ha), 10%; in test [4] (1500 g/ha), 65%; in test [5] (1500 g/ha) it was 50%; in test [6] (1000 g/ha), 10%.
For `CCS(=O)(=O)c1nc2ccccn2c1S(=O)(=O)NC(=O)Nc1nc(OC)cc(OC)n1` [SU - A], the “Phytotoxicity of herbicide alone” value is 60% in test [7] (20 g/ha); 30% and 20% in test [1] (10 g/ha); 70% and 50% in test [1] (20 g/ha); 10% and 0% in test [2] (10 g/ha); 0% in test [2] (20 g/ha); 70% and 40% in test [3] (10 g/ha). Moreover, the “Phytotoxicity of herbicide alone” value is 90% and 45% in test [3] (20 g/ha); 70% in test [3] (30 g/ha); 0% in test [4] (10 g/ha); 0% and 10% in test [4] (30 g/ha); 70% and 50% in test [6] (10 g/ha); 60% in test [6] (20 g/ha). Also, the “Phytotoxicity of herbicide alone” value in test [6] (30 g/ha) was 65% and 55%.
As to `CCC(CC)Nc1c([N+](=O)[O-])cc(C)c(C)c1[N+](=O)[O-]` [Pendimethalin, pendimethalin], the “Phytotoxicity of herbicide alone” value in test [7] (1200 g/ha) was 60%; in test [1] (1200 g/ha), 90%; in test [2] (800 g/ha) it was 10%; in test [3] (800 g/ha), 50%; in test [4] (1200 g/ha), 0%; in test [5] (400 g/ha), 70%. Also, the “Phytotoxicity of herbicide alone” value in test [6] (800 g/ha) stood at 0%.
As for imazamethabenz-methyl, the “Phytotoxicity of herbicide alone” value in test [1] (200 g/ha) worked out at 0%; in test [1] (300 g/ha) it was 10%; in test [2] (300 g/ha), 15%; in test [3] (300 g/ha), 5%; in test [4] (100 g/ha), 30%; in test [5] (300 g/ha), 60%. For the same molecule, the “Phytotoxicity of herbicide alone” value in test [6] (100 g/ha) worked out at 10%.
For `CC(C)c1ccc(NC(=O)N(C)C)cc1` [Isoproturon, isoproturon], the “Phytotoxicity of herbicide alone” value in test [7] (500 g/ha) was determined as 0%; in test [1] (500 g/ha), 0%; in test [2] (1000 g/ha), 0%; in test [4] (1000 g/ha), 0%; in test [5] (500 g/ha), 25%; in test [6] (500 g/ha), 0%.
As for `Nc1c(Cl)c(F)nc(OCC(=O)O)c1Cl` [Fluroxypyr, fluroxypyr], the “Phytotoxicity of herbicide alone” value in test [7] (50 g/ha) is reported as 70%; in test [1] (100 g/ha), 85%; in test [2] (100 g/ha), 0%; in test [3] (100 g/ha), 20%; in test [4] (100 g/ha) it was 0%; in test [5] (1000 g/ha), 50%. Besides, the “Phytotoxicity of herbicide alone” value in test [6] (100 g/ha) worked out at 60%.
Turning to `CCOC(=O)[C@@H](C)Oc1ccc(Oc2nc3ccc(Cl)cc3o2)cc1` [fenoxaprop-P-ethyl], the “Synergistic effect on the weeds (observed higher than expected)” value in test [8] is “synergized”.
On to `CCS(=O)(=O)c1nc2sccn2c1S(=O)(=O)NC(=O)Nc1nc(OC)cc(OC)n1` [SU - B], for which the “Phytotoxicity of herbicide alone” value in test [7] (20 g/ha) was 80%; in test [1] (20 g/ha), 50%; in test [2] (20 g/ha), 10%; in test [2] (30 g/ha) it was 20% and 40%; in test [3] (20 g/ha), 60%; in test [3] (30 g/ha) it was 90%. Besides, the “Phytotoxicity of herbicide alone” value in test [4] (20 g/ha) was 0% and 5%; in test [4] (30 g/ha), 0%; in test [5] (10 g/ha), 0%; in test [6] (20 g/ha), 20%; in test [6] (30 g/ha), 30%.
For the molecule `Cn1c(-c2ccccc2)cc(-c2ccccc2)[n+]1C` [Difenzoquat, difenzoquat], the “Phytotoxicity of herbicide alone” value in test [1] (200 g/ha) came to 0%; in test [2] (600 g/ha), 5%; in test [4] (600 g/ha), 60%; in test [5] (600 g/ha) it was 5%; in test [6] (400 g/ha), 0%.
